# Assays:
# [1] = Actual solubility in aqueous buffers / cosolvent (HPLC, spectrophotometer); format: physicochemical
# Description: The actual solubility of certain compounds of the invention was assessed in aqueous buffers and final concentration of compounds was determined using HPLC and spectrophotometer methodologies. […] Therefore, compounds that were designed following the same rational yielded unexpectedly divergent outcome, for instance in connection with solubility in aqueous solutions.
# It should be noted that following lyophilization compound 18F could be dissolved in 80 mM phosphate buffer at pH 6.9 even more efficiently at concentrations up to 60 mg/ml, about two order of magnitudes higher than expected.
# Approximately 11 g of compound 18F were lyophilized in one lyophilization cycle. A cosolvent mixture comprising 38.6% w/v of compound 18F was divided into several dishes to fit the lyophilization chamber. As a result of lyophilization, a dry product with improved physical properties such as flowability and less stickiness was obtained.
# visceral pain = test: Visceral pain, acetic acid induced writhing responses; format: in vivo, ICR mice; conditions: for inhibition of writhing responses as compared to vehicle treated group: 2 mg/kg i.v.
# Description: For the i.v. part of the study, compounds were dissolved in CREMOPHOR®:Ethanol and diluted 1:20 in saline prior to injection, fifteen minutes before pain induction. When compounds were delivered per os, they were dissolved in phosphate buffer or in CREMOPHOR®:Ethanol as previously described and administered 1 hour before pain induction. Each treatment group, except for controls comprising at least 30 animals, was composed of at least 6 animals. Fifteen or sixty minutes later, depending on the route selected for drug administration, the mice were injected i.p. with 10 ml/kg of 0.6% acetic acid and the number of visceral pain related behaviors (writhing, stretching, contractions of the abdomen accompanied by an elongation of the body and extension of the hind limbs) is counted over a period of 5 minutes, starting 5 minutes after the acetic acid administration. These visceral pain related behaviors are globally defined as writhing responses (WR). The results are expressed as mean number of writhing responses±SEM. Data were analyzed using analysis of variance (ANOVA) followed by post-hoc Fisher test. A value of p<0.05 was considered to be statistically significant and is indicated on the figure by an asterisk over the relevant treatment group.
# The following results were obtained at 2 mg/kg i.v. of test compounds or, in the case of the study performed with cannabinoid receptor antagonists, 1 mg/kg test compound or antagonist alone and 1 mg/kg test compound+1 mg/kg antagonist. In a separate study, it was shown that analgesic activity of compounds of the invention was dose related.
# EAE = conditions: 40 mg/kg p.o. daily for 21 days from disease induction, cited from earlier work
# [2] = tested on: Taxol® induced neuropathic pain; test: Taxol® induced neuropathic pain; format: in vivo, Sprague Dawley rats; conditions: gabapentin 100 mg/kg i.p., morphine 5 mg/kg i.p.; not statistically significant
# Description: Male Sprague Dawley rats (average body weight 150-200 g, Harlan, Israel) were administered i.p. with 6 mg/kg Taxol® (Bristol Myers Squibb, USA) every other day for 9 days. On day 13, baseline pain threshold was measured. One hour later, the animals were administered with 5 ml/kg i.p. of vehicle (PB) only and pain threshold was re-established. After an additional hour animals were treated with various doses of compound 18F ranging from 0.5 mg/kg up to 10 mg/kg administered i.p. Morphine at 5 mg/kg i.p. and gabapentin at 100 mg/kg i.p served as positive controls. Each treatment group comprised at least eight animals. One hour post drug administration pain threshold was monitored using thermal and mechanical stimuli as previously described. At the end of the study, rats were euthanized with sodium pentobarbitone 100 mg/kg i.p. Sample rats were then transfused with saline and heparinized 4% formaldehyde solution. The L4-L5 area of the spinal cord and the sciatic nerve were taken for histopathology assessment.
# The time latencies for thermal hyperalgesia, and force needed to induce pain of the different treatment groups are compared, using one way ANOVA (analysis of variance), followed by Duncan's post hoc test. A p<0.05 value was considered statistically significant and is indicated on the figure by an asterisk over the relevant treatment group.
# [3] = Stability in aqueous solutions; format: physicochemical; conditions: 95 μg/ml in citrate buffer (pH 7.1), 4° C.
# Description: Stability of compounds of the invention in aqueous solutions was compared. Compounds were dissolved in buffer phosphate solutions and their concentration monitored using HPLC and spectrophotometer methodology. While compound 18F at concentration of 2 mg/ml in phosphate buffer (pH 7.0) was stable for at least 3 months at 4° C., compound 18B at concentration of 95 μg/ml in citrate buffer (pH 7.1) readily hydrolyzed in less than 24 hours at 4° C. Therefore, compounds that were designed following the same rational yielded unexpectedly divergent outcome, for instance in connection with stability in aqueous solutions.
# iNOS [4] = test: iNOS gene expression in LPS activated RAW 264.7 macrophages (real-time RT-PCR); format: cell-based, mouse; conditions: for inhibition of iNOS gene expression: 10 μM, 1 h pre-treatment, 3 hrs after LPS activation
# Description: (§1) RAW 264.7 macrophages, a mouse cell line (ATCC # TIB 71), were grown in Dulbecco's modified Eagle's medium (DMEM) with 4 mM L-glutamine adjusted to contain 1.5 g/L sodium bicarbonate, 4.5 g/L glucose, and 10% heat inactivated fetal bovine serum. Cells were grown in tissue culture flasks and seeded at appropriate density into 6 wells tissue culture plates. Four million Raw cells in half a milliliter were stimulated with 1 μg/ml Lipopolysaccharide E. coli 055:B5 (DIFCO Laboratories). The mouse macrophages were pre-treated for one hour with controls or 10 μM of test compounds, and later on activated with LPS. RNA samples were extracted from the cells 3 hrs after activation and iNOS gene expression levels were analyzed by real-time RT-PCR as previously described. For western blot analysis, compounds were tested at 1, 5 and 10 μM and cells were harvested 24 hrs after LPS stimulation. Supernatant were collected and NO secretion was analyzed using ELISA. Cells were washed 3 times with cold PBS, scrapped and lyzed in 100 μl cell lysis buffer containing 20 mM HEPES, pH 7.6, 150 mM NaCl, 1.5 mM MgCl2, 0.2 mM EDTA, 1% Triton X-100, 10% glycerol, 1 mM DTT, 1 mM PMSF, 10 μg/ml aprotinin. 5 µg/ml leupeptin, 10 mM p-nitrophenyl phosphate, 100 mM β-glycerophosphate, 1 mM sodium fluoride, and 0.1 μM sodium orthovanadate. Cells were lyzed on ice for 10 minutes before further processing.
# The results of this experiment are expressed as fold activation of iNOS over non-activated macrophages, after normalization to cyclophilin A expression. Compound 18A inhibits 63% of iNOS gene expression, and compounds 18B, 18E and 18F inhibit 55%, 25% and 100% respectively. […] This surprising observation strengthen the fact that compounds of the invention, though chemically related, have distinct and unexpected properties.
# CB2 receptor = CB2 receptor (Homo sapiens, UniProt P34972); test: CB2 binding assay
# CB1 receptor = CB1 receptor (Homo sapiens, UniProt P21554); test: CB1 binding assay
# MBP induced acute EAE = test: MBP induced acute EAE; format: in vivo, Lewis rats; conditions: 0.5-1 mg/kg i.v., 3 days after clinical onset
# Description: In the present study, EAE was induced by injection of Myelin Basic Protein (MBP), a method known to model the acute phase of MS. In this model the onset of the disease is observed by the appearance of clinical symptoms about 10 days after induction. The disease progresses and the clinical score increases and peaks around day 15 and spontaneous recovery is observed around day 23 after induction of the disease.
# Female Lewis rats (average body weight 130-180 g, Harlan, Israel) were injected s.c. into the hind paws with 25 μg of purified guinea pig myelin basic protein (MBP, Sigma) emulsified in 0.1 ml of Complete Freund's Adjuvant (Difco). Animals were maintained on a 12 hours light/12 hours dark regimen, at a constant temperature of 22° C., with food and water ad libitum. Starting from day 8 following induction, animals were followed up on a daily basis. The results are recorded as clinical score; score of 0 indicates a normal animal with no clinical signs, 0.5 indicates a loss of tonicity in the tail's distal part, 1 indicates whole tail paralysis, 1.5 indicates hind legs weakness in one leg, 2 indicates hind legs weakness in two legs, 2.5 indicates fore legs paralysis in one leg, 3 indicates paralysis of all four legs, 4 indicates complete body paralysis and moribund state and 5 indicates death. The clinical score of the animals is recorded for 15 days following onset of disease until the end of the study 25 days following induction and the area under the curve (AUC) is calculated over this period of time.
# Few routes of administration were assessed and the treatments were either administered intravenously (in CE vehicle) or orally by gavage (in PB vehicle) at volume dose of 5 ml/kg.
# Results are expressed as mean±SEM and the differences between the treatment groups were analyzed by analysis of variance (ANOVA) followed by Tukey's post hoc test. A value of p<0.05 was considered to be statistically significant and is indicated on the figure by an asterisk over the relevant treatment group.
# Compound 18A was dissolved in CREMOPHOR EL®:ethanol and further diluted in physiological buffer prior to i.v. administration. It is now disclosed that compound 18F could be dissolved directly in 80 mM phosphate buffer (pH 6.4) and administered p.o. Compound 18F was administered by oral gavage at doses of 20, 30, 40, 50 and 60 mg/kg to animals showing clinical signs of the disease. Each treatment group comprised at least 10 animals at onset of disease. At some doses, experiments were repeated up to four times.
# RAW 264.7 macrophages = test: NO secretion of LPS activated RAW 264.7 macrophages (ELISA); format: cell-based; conditions: Mus musculus, RAW264.7, 24 hrs after LPS stimulation
# Description: as §1, with “processing. […]” for “processing.”
# iNOS [5] = test: iNOS protein expression in activated macrophages (western blot); format: cell-based, mouse; conditions: 1, 5 and 10 μM, 24 hrs after LPS stimulation
# Description: as §1, with “Cells were washed 3 times with cold PBS, scrapped and lyzed in 100 μl cell lysis buffer containing 20 mM HEPES, pH 7.6, 150 mM NaCl, 1.5 mM MgCl2, 0.2 mM EDTA, 1% Triton X-100, 10% glycerol, 1 mM DTT, 1 mM PMSF, 10 μg/ml aprotinin. 5 µg/ml leupeptin, 10 mM p-nitrophenyl phosphate, 100 mM β-glycerophosphate, 1 mM sodium fluoride, and 0.1 μM sodium orthovanadate. Cells were lyzed on ice for 10 minutes before further processing.” left out
# To assess correlation between gene expression and protein expression, protein extracts were prepared from the various treated activated macrophages. […] Primary antibodies against cyclophilin A were used as control (Upstate, Cat# 07-313), and the amount of iNOS was assessed using NOS2 (C11) Santa Cruz antibodies (Cat# SC-7271) were hybridized for 2 hours at room temperature. […]
# Sequence of CB1 receptor (P21554 whole entry): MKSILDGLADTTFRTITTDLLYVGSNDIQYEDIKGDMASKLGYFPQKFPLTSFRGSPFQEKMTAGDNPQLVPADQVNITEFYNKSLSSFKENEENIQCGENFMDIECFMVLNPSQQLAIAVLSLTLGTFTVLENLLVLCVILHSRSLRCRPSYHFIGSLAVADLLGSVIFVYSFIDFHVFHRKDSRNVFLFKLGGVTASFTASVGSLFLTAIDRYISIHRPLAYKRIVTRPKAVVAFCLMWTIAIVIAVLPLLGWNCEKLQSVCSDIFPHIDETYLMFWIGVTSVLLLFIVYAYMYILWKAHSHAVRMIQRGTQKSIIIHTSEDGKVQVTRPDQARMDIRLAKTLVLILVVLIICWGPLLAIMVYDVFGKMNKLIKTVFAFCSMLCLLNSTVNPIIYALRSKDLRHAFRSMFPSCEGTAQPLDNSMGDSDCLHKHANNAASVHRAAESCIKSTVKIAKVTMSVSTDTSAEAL
# Sequence of CB2 receptor (P34972 whole entry): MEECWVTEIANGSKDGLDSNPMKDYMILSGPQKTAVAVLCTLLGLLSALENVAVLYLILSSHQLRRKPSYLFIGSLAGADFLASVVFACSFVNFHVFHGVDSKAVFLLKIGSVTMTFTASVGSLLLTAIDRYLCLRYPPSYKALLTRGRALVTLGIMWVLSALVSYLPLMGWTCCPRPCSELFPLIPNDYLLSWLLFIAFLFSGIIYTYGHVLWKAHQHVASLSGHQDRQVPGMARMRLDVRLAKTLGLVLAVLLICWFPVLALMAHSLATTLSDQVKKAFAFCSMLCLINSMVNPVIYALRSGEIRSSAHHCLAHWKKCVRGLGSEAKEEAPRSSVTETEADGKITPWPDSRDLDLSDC
smiles,measurement,setting,value
"CCCCCc1cc(O)c2c(c1)OC(C)(C)[C@@H]1CC=C(C)C[C@@H]21 [Δ^8-THC, reference compound]",solubility in aqueous buffer,[1]; in words,not soluble in aqueous buffer
same,decrease of number of writhing responses as compared to the untreated group,"visceral pain; 10 mg/kg p.o. in CREMOPHOR®:Ethanol, not statistically significant vs vehicle",47%
same,decrease of mean disease severity,EAE,20%
same,mean disease severity,EAE; vehicle 5.5±0.8,4.4±0.8
"NCC1(CC(=O)O)CCCCC1 [Gabapentin, reference compound]",activity in visceral pain model,"visceral pain; fumaric acid up to 5 mg/kg, Gabapentin up to 200 mg/kg, celecoxib up to 10 mg/kg",inactive
same,effect on pain threshold,[2],trend of increasing the pain threshold
"CCCCCCC(C)(C)c1cc(O)c([C@H]2CC(=O)C3CC2C3(C)C)c(OC(=O)CCC(=O)O)c1 (single isomer, unassigned; (-)) [Compound 18B, (−)-4-{4-[1,1-dimethylheptyl]-2-succinate-6-hydroxy-phenyl}-6,6-dimethyl-bicyclo[3.1.1]heptan-2-one]",divergence of solubility from prediction,[1]; aqueous citrate buffer (pH 7.1) vs calculated,< 4 fold
same,solubility,"[1]; aqueous citrate buffer, pH 7.1, aqueous buffer, thermodynamic from solid, aqueous citrate buffer (pH 7.1), read-out: actual solubility",≤ 95 µg/mL
same,time to hydrolysis in solution,[3],less than 24 hours
same,inhibition of iNOS gene expression,iNOS [4],55%
same,inhibition of writhing responses as compared to vehicle treated group,visceral pain,95%
same,inhibition of pain response as compared to untreated animals,visceral pain; 10 mg/kg p.o. in phosphate buffer,88%
same,IC50,CB2 receptor,1.2 nM
same,IC50,CB1 receptor,41 nM
"CCCCCCC(C)(C)c1cc(O)c([C@H]2CC(=O)[C@H]3C[C@@H]2C3(C)C)c(O)c1 [Compound 18A, (−)-4-[4-(1,1-Dimethylheptyl)-2,6-dihydroxy-phenyl]-6,6-dimethyl-bicyclo[3.1.1]heptan-2-one]",reduction in AUC of clinical score,MBP induced acute EAE,30-35%
same,effect of CB1 or CB2 antagonists on iNOS inhibiting activity,iNOS [4]; 5 μM of SR-141716 and SR-144528,reversed by co-administration of either CB1 or CB2 antagonists
same,inhibition of iNOS gene expression,iNOS [4],63%
same,inhibition at 10 µM,RAW 264.7 macrophages,63%
same,iNOS protein band (western blot),iNOS [5],clear dose dependent disappearance of iNOS protein band
same,inhibition of the number of writhing responses,visceral pain; 1 mg/kg i.v.,90%
same,effect of addition of CB1 antagonist on analgesic activity,visceral pain; 1 mg/kg i.v. + 1 mg/kg SR141716A,totally blocked
same,effect of addition of CB2 antagonist on analgesic activity,visceral pain; 1 mg/kg i.v. + 1 mg/kg SR144528,did not affect
same,inhibition of writhing responses as compared to vehicle treated group,visceral pain,total inhibition
same,inhibition of writhing responses,visceral pain; 10 mg/kg p.o. in CREMOPHOR®:Ethanol,70%
same,IC50,CB2 receptor,1 nM
same,IC50,CB1 receptor,27.6 nM
"CN1CC[C@]23c4c5ccc(O)c4O[C@H]2[C@@H](O)C=C[C@H]3[C@H]1C5 [morphine, reference compound]",effect on pain threshold,[2],trend of increasing the pain threshold

# Source: US20090068143A1, “ORALLY EFFECTIVE C[…]” (priority 2005, published 2009)
